# From patent US11207271B2, “Mazindol IR/SR multilayer tablet and its use for the treatment of attention deficit/hyperactivity disorder (ADHD)” (NLS-1 Pharma AG, priority 2016, dated 2021)
# Columns and labels:
# [1] = Pharmacokinetics of immediate-release mazindol after oral administration; assay type: in vivo, human; details: immediate release formulation; from half-life
# Procedure: In U.S. Pat. No. 8,293,779, it is disclosed that, after single or repeated oral administration, mazindol is absorbed with a time to maximum concentrations (Tmax) of 2-4 hours.
# Such immediate release compositions thus require twice daily administration, which limits compliance in the special case of children of school age, as the second administration is often requested to be done at midday, i.e. during school time. Even given the fact that the immediate release tablet undergoes complete in vitro dissolution within 1 hour, the time to maximum concentrations (Tmax) occurs at 3-4 hours after drug administration in healthy volunteers (Kim 2009). Rapid initial absorption will allow the earlier achievement of adequate systemic exposure to achieve desired efficacy (e.g., administer early and have onset of efficacy 1-2 hours later, when patient is at school or work).
# [2] = cited from earlier work
# [3] = clinical pharmacokinetic studies; cited from earlier work
# [4] = In vitro TIM gastrointestinal system, fasted vs fed; assay type: in vitro ADME, human; details: formulated according to the invention
# Source text: As discussed, this is particularly beneficial for ADHD patients, for this initial amount of mazindol provided increases patients' mental alertness and acuity at the start of their day (e.g., driving to work, starting school).
# [5] = cited from earlier work; remark: listed apart in the source
# [6] = animal toxicology studies; cited from earlier work
structure (smiles),measurement,setting,value
"OC1(c2ccc(Cl)cc2)c2ccccc2C2=NCCN21 (centres unmarked) [mazindol, 5-(4-chlorophenyl)-2,5-dihydro-3H-imadazo[2,1-a]isoindol-5-ol]",time to reach steady-state concentrations,[1],30 to 55 h
same,dose dependence of pharmacokinetics,"[2]; doses between 1 mg/day and 4 mg/day, immediate-release formulations",linear (independent of the dose)
same,time to maximum concentrations (Tmax),"[2]; single or repeated oral administration, U.S. Pat. No. 8,293,779",2 to 4 h
same,absorption in the colon,[3],not likely to be absorbed in the colon
same,Tmax in the fed state compared to the fasted state,[4],"delayed, compared to the fasted state, by one hour or more"
same,hydrolytic stability,"[5]; moderate temperatures, water / neutral and alkaline aqueous solutions, human plasma",undergoes hydrolysis at moderate temperatures with minimal amount of water
same,solubility as function of pH,"[5]; most soluble at stomach pH, least in the colon",decreases with increasing pH
same,carcinogenic effect,[6],no carcinogenic effect
same,mutagenic effect,[6],no mutagenic effect
same,toxic potential,[6],very low
same,toxicology effect in reproduction,[6],no toxicology effect in reproduction
